In publication PMC8199124, “Design, Synthesis and In-Vitro Biological Evaluation of Antofine and Tylophorine Prodrugs as Hypoxia-Targeted Anticancer Agents” (Molecules, 2021):
Converted amounts (≈) assume the structure as drawn. Read-outs that look alike come from different tables or passages of the source.

How the values were obtained:
HCT116 [1] = test: Cytotoxicity under normoxia and hypoxia (anaerobic chamber, sulphorhodamine B), HCT116; assay type: cell-based, human; conditions: for IC50: 4 h exposure, 5 days growth; for HCR (Hypoxia Cytotoxicity Ratio): HCT116, HCR = normoxic IC50/hypoxic IC50
Protocol: (§1) We also checked if the designed prodrugs were able to liberate the active alkaloids in hypoxic tumors by testing them under hypoxic conditions using an anaerobic chamber. The three prodrugs 5a–c and their parent alkaloids as well as the reference compounds PR-104A, the parent alcohol form of the phosphate pre-prodrug PR-104, and evofosfamide were tested using the HCT116 and H460 cell lines under both normoxic and hypoxic conditions (Table 5). The prodrugs were much less cytotoxic than the parent drugs, in agreement with our observations using the other cell lines described above (Figure 6).
(§2) The extent to which a prodrug is deactivated relative to its parent drug under normoxic conditions is defined as the Deactivation Ratio (DR). The DR can be simply calculated as DR = IC50 (prodrug)/IC50 (parent drug).
(§3) The efficacy of prodrug activation under hypoxic conditions can be expressed by the Hypoxia Cytotoxicity Ratio (HCR), which can be calculated for a given prodrug as: HCR = normoxic IC50/hypoxic IC50.
(§4) The eight cell lines HEK293 (Human embryonic kidney 293), CHO-K1 (Chinese hamster ovary K1), MCF-7 cells (Human breast adenocarcinoma), HCT116 (human colorectal carcinoma), RKO (Human rectal carcinoma), SW480 (human colorectal carcinoma), H460 (Human lung cancer), and MRC5 (Normal human foetal lung fibroblast), were obtained from the ATCC. The cell lines were routinely grown in alpha minimum essential medium (α-MEM) containing 5% foetal calf serum (FCS). The appropriate number of cells (HCT116 = 400 cells/well, H460 cells = 600 cells/well) were seeded into 96-well plates under normoxic or hypoxic conditions. Cells were plated in 100 µL α-MEM containing 10% FCS, 10mM D-Glucose and 0.2mM 2′-deoxycytidine. After incubation for 2 h, the compounds were added at the appropriate concentration and incubated for further 4 h. The cells were then washed three times with drug-free α-MEM (containing 5% FCS and pen/strep). The plates were then incubated for 5 days under normoxic conditions. The cells were stained with sulphorhodamine B to measure total cells. The IC50 was determined by interpolation as the compound concentration reducing staining to 50% of controls on the same plate.

H460 = test: Cytotoxicity under normoxia and hypoxia (anaerobic chamber, sulphorhodamine B), H460; assay type: cell-based, human; conditions: for IC50: 4 h exposure, 5 days growth; for HCR (Hypoxia Cytotoxicity Ratio): H460, HCR = normoxic IC50/hypoxic IC50
Protocol: as §1, §2, §3, §4

SW480 = test: Cytotoxicity (MTT) under normoxia, SW480; assay type: cell-based; conditions: Homo sapiens, SW480, read-out: IC50 SW480
Protocol: (§5) The cytotoxicity of the compounds 5a–c and their parent alkaloids was evaluated by the 3-[4,5-dimethylthiazole-2-yl]-2,5-diphenyltetrazolium bromide (MTT) assay against 5 cancerous and 2 non-cancerous cell lines (Table 4).
as §4

HCT116 [2] = test: Cytotoxicity (MTT) under normoxia, HCT116; assay type: cell-based; conditions: Homo sapiens, HCT-116, read-out: IC50 HCT116
Protocol: as §5, §4

MCF7 = test: Cytotoxicity (MTT) under normoxia, MCF7; assay type: cell-based; conditions: Homo sapiens, MCF7, read-out: IC50 MCF7
Protocol: as §5, §4

RKO = test: Cytotoxicity (MTT) under normoxia, RKO; assay type: cell-based; conditions: Homo sapiens, read-out: IC50 RKO
Protocol: as §5, §4

MRC5 = test: Cytotoxicity (MTT) under normoxia, MRC5; assay type: cell-based; conditions: Homo sapiens, MRC5, read-out: IC50 MRC5
Protocol: as §5, §4

[3] = BBB-Parallel Artificial Membrane Permeability Assay (BBB-PAMPA); assay type: in vitro ADME; conditions: mean ± SE
Protocol: The physicochemical properties of the new compounds were evaluated (Table 1). […] Consequently, these derivatives lost their BBB penetrability, as predicted by the BBB-Parallel Artificial Membrane Permeability Assay (BBB-PAMPA), whereas their parent alkaloids had free passage through the BBB.
(§6) Water solubility, logD, and PAMPA-BBB were evaluated using the protocols we previously described.

LogD determination = assay type: physicochemical; conditions: mean ± SE
Protocol: as §6

HEK293 = test: Cytotoxicity (MTT) under normoxia, HEK293; assay type: cell-based; conditions: Homo sapiens, HEK293, read-out: IC50 HEK293
Protocol: as §5, §4

[4] = Mouse microsomal liver stability assay; conditions: male, Balb/c, microsomes, pH 7.4
Protocol: Mouse hepatic microsomes were isolated from pooled, perfused livers of Balb/c male mice according to the standard protocol. […] Microsomal incubations were carried out in 96-well plates in 5 aliquots of 40 μL each. […] Control incubations were performed by replacing the NADPH-cofactor system with PBS. The additional control incubations in PBS (with 3.3 mM MgCl2) without added microsomes were carried out in this study. […] The incubations were performed in duplicates. Five time points over 40 min had been analyzed. The reactions were stopped by adding 12 volumes of 90% acetonitrile-water to incubation aliquots, followed by protein sedimentation by centrifuging at 5500 rpm for 3 min. The supernatants were analyzed using LC-MS as mentioned above.

CHO-K1 = test: Cytotoxicity (MTT) under normoxia, CHO-K1; assay type: cell-based, Chinese hamster; conditions: Cricetulus griseus, CHO-K1, read-out: IC50 CHO-K1
Protocol: as §5, §4

[5] = Solubility in PBS (pH 7.4); assay type: physicochemical; conditions: aqueous buffer, mean ± SE
Protocol: as §6

[6] = Plasma protein binding (PPB); assay type: in vitro ADME; conditions: mean ± SE, read-out: PPB (% of Bound Compound) (converted)
Protocol: The physicochemical properties of the new compounds were evaluated (Table 1).

[7] = Homo sapiens, HCT-116, HCT116, hypoxia, read-out: IC50 (Hypoxia)
[8] = Homo sapiens, HCT-116, HCT116, normoxia, read-out: IC50 (Normoxia)
[9] = Homo sapiens, NCI-H460, H460, hypoxia, read-out: IC50 (Hypoxia)
[10] = Homo sapiens, NCI-H460, H460, normoxia, read-out: IC50 (Normoxia)

With `CS(=O)(=O)OCCN(CCBr)c1c(C(=O)NCCO)cc([N+](=O)[O-])cc1[N+](=O)[O-]` [PR-104A] the IC50 (HCT116 [1]; HCT116, hypoxia, read-out: IC50 (Hypoxia)) was 861 ± 122 nM, the IC50 (HCT116 [1]; HCT116, normoxia, read-out: IC50 (Normoxia)) was 16500 nM and the “HCR (Hypoxia Cytotoxicity Ratio)” value (HCT116 [1]) was 10.5. The IC50 (H460; H460, hypoxia, read-out: IC50 (Hypoxia)) was 533 ± 47 nM, the IC50 (H460; H460, normoxia, read-out: IC50 (Normoxia)) was 1340 ± 386 nM and the “HCR (Hypoxia Cytotoxicity Ratio)” value (H460) was 2.5.
Work on `COc1cc2c3c(c4cc(OC)c(OC)cc4c2cc1OC)CN1CCC[C@@H]1C3` [(R)-Tylophorine] yielded an IC50 (SW480) of 1150 ± 244 nM, an IC50 (HCT116 [2]) of 440 ± 36 nM and an IC50 (MCF7) of 101 ± 88 nM. The IC50 (RKO) was 338 ± 61 nM, the IC50 (MRC5) was 95 ± 6 nM and the “HCR (Hypoxia Cytotoxicity Ratio)” value (HCT116 [1]) was 0.6. For the same compound, the IC50 (HCT116 [1]; [7]) was 56.4 ± 35 nM, the IC50 (HCT116 [1]; [8]) was 1710 ± 965 nM and the “HCR (Hypoxia Cytotoxicity Ratio)” value (H460) was 1.1. The IC50 (H460; [9]) was 161 ± 77 nM and the IC50 (H460; [10]) was 175 ± 78 nM.
For `CN(C)CCCN1c2ccccc2Sc2ccc(Cl)cc21` [Chlorpromazine], the “Permeability (Papp)” value [3] was −5.4 ± 0.13 Log [10^−6 cm/s].
For `COC(=O)Nc1nc2ccc(C(=O)c3ccccc3)cc2[nH]1` [Mebendazole], the logD (LogD determination) was 3.26 ± 0.01.
In the case of `COc1cc2c3c(c4cc(OC)c(OC)cc4c2cc1OC)CN1CCC[C@H]1C3` [(S)-Tylophorine], the IC50 (SW480) is reported as 69 ± 20 nM, the IC50 (HEK293) is reported as 16 ± 26 nM and the IC50 (HCT116 [2]) is reported as 85 ± 6 nM. For the same compound, the IC50 (MCF7) was 62 ± 13 nM, the IC50 (RKO) was 202 ± 3 nM and the half-life at 2 μM [4] was 2.12 ± 0.05 h. The IC50 (CHO-K1) was 35 ± 42 nM, the IC50 (MRC5) was 27 ± 2 nM and the “Permeability (Papp)” value [3] was −5.4 ± 0.17 Log [10^−6 cm/s]. It also gave a solubility [5] of 2 µM (≈ 0.787 µg/mL), a fraction unbound [6] of 0.061 and a logD (LogD determination) of 3.14 ± 0.02. The “HCR (Hypoxia Cytotoxicity Ratio)” value (HCT116 [1]) was 0.5, the IC50 (HCT116 [1]; [7]) was 50.1 ± 18 nM and the IC50 (HCT116 [1]; [8]) was 35.1 ± 15 nM. The “HCR (Hypoxia Cytotoxicity Ratio)” value (H460) was 1.1, the IC50 (H460; [9]) was 102 ± 32 nM and the IC50 (H460; [10]) was 108 ± 28 nM.
In the case of `CNC(=C[N+](=O)[O-])NCCSCc1ccc(CN(C)C)o1` [Ranitidine], the “Permeability (Papp)” value [3] is reported as <−7 Log [10^−6 cm/s].
